Experimental data from patent US20260152527A1, “NOVEL MELANOCORTIN ANALOGS” (priority 2022, published 2026).
Values after ≈ are worked out from the molar mass of the structure shown. Like-named read-outs stand apart in the source and are kept apart here. Positions of bridges follow the written chain, without caps; N, C: chain ends. Non-standard residues stand in square brackets, D forms with d. Residues, ends and D or L forms follow the SMILES beside them. Triazole bridges read from a SMILES are 1,4-linked. *: point of attachment. dPhe(4-CF3) = N[C@H](Cc1ccc(C(F)(F)F)cc1)C(=O)O; Benzoyl(3,5-(OH)2) = O=C(c1cc(O)cc(O)c1)*; Lys(N3) = [N-]=[N+]=NCCCC[C@H](N)C(=O)O; dPhe(4-F) = N[C@H](Cc1ccc(F)cc1)C(=O)O; NMeH = CN[C@@H](Cc1c[nH]cn1)C(=O)O; NMeR = CN[C@@H](CCCNC(=N)N)C(=O)O; dNMeF = CN[C@H](Cc1ccccc1)C(=O)O; Aad = N[C@@H](CCCC(=O)O)C(=O)O; Nle = CCCC[C@H](N)C(=O)O; Pra = C#CC[C@H](N)C(=O)O

Tests used:
[1] = Thermodynamic solubility study in water; assay type: physicochemical
Experimental: The study was conducted in water. Water was added into compound powder to make a 10 mg/mL solution. Sample tubes were shaken at the vibrator for 1 hour (1000 rpm) and then equilibrated overnight at room temperature. Samples were centrifuged at 12000 rpm for 10 min to precipitate undissolved particles. Supernatants were transferred from tubes to a new plate. An aliquot of the supernatant after centrifugation was taken from each well, then analyzed by LC-MS/MS. The concentration of the supernatants was quantified by a standard curve.

[2] = rabbit
Excerpt: (§1) To evaluate the effects of the peptide formulations following topical administration and subconjunctival injection a study in rabbits was undertaken. Animals were acclimated to the study and, upon completion of the acclimation period, each animal was physically examined for determination of suitability for study participation. Animals determined to be in good health were randomized into study groups to achieve averaged mean body weight in each group. (N=24; 3 animals per study group) Animals will be uniquely identified by corresponding cage card number and ear tag.
(§2) For topical ocular dosing the designated peptide formulations (35 L) were administered to the eye of each animal using a calibrated pipette. With the animal manually restrained, the upper eyelid of the eye was gently elevated to expose the cornea. Treatment was then be applied to the cornea without contacting the eye with the pipette tip. One topical drop was applied per eye for four days. Tissue collection (aqueous humor) occurred 30 minutes after last dose.
(§3) A veterinary ophthalmologist performed complete ocular examinations using a slit lamp biomicroscope and indirect ophthalmoscope to evaluate ocular surface morphology and anterior and posterior segment inflammation on all animals prior to injection to serve as a baseline for enrollment into the study as well as on specific study days. Animals were not tranquilized for the examinations.
(§4) At least 1.0 mL of whole blood was drawn from the marginal ear vein or cardiac puncture (terminal bleed only) into K2EDTA tubes for plasma collection. After collection, the tubes were gently mixed by inverting the tubes 5-8 times. Blood samples were stored on wet ice prior to plasma processing. The samples were centrifuged at 4° C. for 10 minutes at 2000 g in a swinging bucket refrigerated centrifuge. Within 20 minutes of the blood collection time, the clear plasma was transferred to prelabelled polypropylene tubes, snap frozen, and stored frozen at approximately −80° C.
(§5) Following euthanasia, eyes were enucleated and marked at the 12:00 position. Aqueous humor was removed via a 27 or 30 gauge syringe following a 10-15 second rinse with PBS and blot with Kimwipe, and snap frozen by immersing in liquid nitrogen. The whole globe was then snap frozen in liquid nitrogen and stored at −80° C. to be held for potential dissection. All samples were placed into individual vials and weighed. The plasma and aqueous humor were collected.
(§6) The peptides were evaluated for their ocular tolerability and pharmacokinetics following repeated (QID×4 days) topical instillation or a single subconjunctival injection in rabbits. The study examined penetration into the anterior chamber and concentrations in the plasma by measuring at a single time point.

human recombinant MC4R = biological target: T1, human recombinant MC4R (Homo sapiens, UniProt P32245); assay: Ca2+ signalling functional assay, MC4R stable cell line (CHO-K1/Gα15); assay type: cell-based; settings: for IC50: calcium flux functional assay
T1 construct: host or cells: CHO-K1/Gα15
T1 sequence (P32245 whole entry): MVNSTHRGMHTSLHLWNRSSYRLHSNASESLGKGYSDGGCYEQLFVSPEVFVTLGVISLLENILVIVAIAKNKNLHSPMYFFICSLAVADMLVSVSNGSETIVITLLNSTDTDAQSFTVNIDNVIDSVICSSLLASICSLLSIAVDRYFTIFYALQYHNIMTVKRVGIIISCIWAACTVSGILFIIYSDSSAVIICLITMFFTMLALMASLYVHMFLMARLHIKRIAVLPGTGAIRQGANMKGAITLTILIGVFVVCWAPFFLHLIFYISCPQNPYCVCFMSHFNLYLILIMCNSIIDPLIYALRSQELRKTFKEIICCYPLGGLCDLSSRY
Experimental: The Ca^2+ signalling functional assay was performed on a human recombinant MC4R stable cell line (CHO-K1/Gα15, GenScript). The cells were cultured at 37° C. and 5% CO2 with culture medium (90% Ham's F-12K (Kaighn's)+10% FBS+8 μg/mL Puromycin+100 μg/mL Hygromycin B). Cells were washed with PBS and then detached by incubation with 0.05% (w/v) Trypsin EDTA at 37° C. for 2-5 mins. Detached cells were suspended in Ham's F-12K (Kaighn's) (containing 10% FBS) and a 50 μL cell suspension was seeded into each well of a 384-well assay plate at a density of 15,000 cells/well. Cells were allowed to settle overnight at 37° C., 5% CO2. The next day, the assay plate was centrifuged and the media was replaced with dye (1×) in assay buffer (containing HBSS, HEPES 20 mM and probenecid 1 mM) and incubated for 1 h at 37° C. […] Then, 100 nL of compounds were transferred to the compound plate by the Echo machine. 30 μL assay buffer was added to the compounds plate and then shaken for 20 to 40 minutes. The plates were placed on the FLIPR and 15 μL of the compound was added to each well, then calcium flux signal was measured.

human recombinant MC5R = biological target: T2, human recombinant MC5R (Homo sapiens, UniProt P33032); assay: Ca2+ signalling functional assay, MC5R stable cell line (CHO-K1/Ga15); assay type: cell-based
T2 construct: host or cells: CHO-K1/Ga15
T2 sequence (P33032 whole entry): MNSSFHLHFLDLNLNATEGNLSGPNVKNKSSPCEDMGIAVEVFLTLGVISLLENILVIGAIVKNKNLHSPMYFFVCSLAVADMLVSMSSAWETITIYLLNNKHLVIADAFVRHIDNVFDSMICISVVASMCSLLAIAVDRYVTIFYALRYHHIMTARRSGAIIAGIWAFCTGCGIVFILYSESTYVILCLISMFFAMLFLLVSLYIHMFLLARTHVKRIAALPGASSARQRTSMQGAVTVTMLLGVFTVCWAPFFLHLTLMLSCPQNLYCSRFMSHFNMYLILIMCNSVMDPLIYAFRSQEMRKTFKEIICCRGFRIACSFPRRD
Experimental: The Ca^2+ signalling functional assay was performed on a human recombinant MC5R stable cell line (CHO-K1/Ga15, GenScript). The cells were cultured at 37° C. and 5% C02 with culture medium (90% Ham's F-12K (Kaighn's)+10% FBS+400 μg/mL G418+100 μg/mL Hygromycin B). Cells were washed with PBS and then detached by incubation with 0.05% (w/v) Trypsin EDTA at 37° C. for 2 to 5 mins. Detached cells were suspended in Ham's F-12K (Kaighn's) (containing 10% FBS) and a 50 μL cell suspension is seeded into each well of a 384-well assay plate at a density of 15,000 cells/well. Cells were allowed to settle overnight at 37° C., 5% CO2. […] Then, 100 nL of compounds were transferred to the compound plate by the Echo machine. Thirty microliter assay buffer was added to the compounds plate and then shaken for 20-40 minutes. The plates were placed on the FLIPR and 15 μL of the compound was added to each well, then calcium flux signal was measured.

human recombinant MC3R = biological target: T3, human recombinant MC3R (Homo sapiens, UniProt P41968); assay: Ca2+ signalling functional assay, MC3R stable cell line (CHO-K1/Gα15); assay type: cell-based; settings: calcium flux functional assay
T3 construct: host or cells: CHO-K1/Gα15
T3 sequence (P41968 whole entry): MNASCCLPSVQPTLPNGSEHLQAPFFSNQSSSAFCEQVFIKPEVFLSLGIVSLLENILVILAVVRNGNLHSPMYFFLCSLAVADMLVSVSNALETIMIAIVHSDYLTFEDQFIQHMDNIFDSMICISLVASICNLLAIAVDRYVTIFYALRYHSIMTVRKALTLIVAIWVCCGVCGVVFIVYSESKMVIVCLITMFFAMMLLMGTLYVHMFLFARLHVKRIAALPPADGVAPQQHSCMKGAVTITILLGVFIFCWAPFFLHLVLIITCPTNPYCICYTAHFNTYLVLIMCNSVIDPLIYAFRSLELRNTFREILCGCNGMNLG
Experimental: The Ca^2+ signalling functional assay was performed on a human recombinant MC3R stable cell line (CHO-K1/Gα15, GenScript). The cells were cultured at 37° C. and 5% CO2 with culture medium (90% Ham's F-12K (Kaighn's)+10% FBS+200 μg/mL Zeocin+100 μg/mL Hygromycin B). Cells were washed with PBS and then detached by incubation with 0.05% (w/v) Trypsin EDTA at 37° C. for 2-5 mins. Detached cells were suspended in Ham's F-12K (Kaighn's) (containing 10% FBS) and a 50 μL cell suspension was seeded into each well of a 384-well assay plate at a density of 10,000 cells/well. Cells were allowed to settle overnight at 37° C., 5% CO2. […] The compounds and reference compound ACTH were diluted in 4 folds starting from 50 uM. Then, 500 nL of compounds were transferred to the compound plate by the Echo machine. 30 uL assay buffer was added into the compounds plate and then shaken for 20-40 minutes. The plates were then placed on the FLIPR Tetra High-Throughput Cellular Screening System (FLIPR®, Molecular Devices) and 15 μL of the compound was added to each well, then calcium flux signal was measured.

human recombinant MC1R = biological target: T4, human recombinant MC1R (Homo sapiens, UniProt Q01726); assay: cyclic AMP (cAMP) functional assay, MC1R stable cell line (CHO-K1); assay type: cell-based; settings: for IC50: cAMP functional assay;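 as to all read-outs here: cells with test compound for 60 min at room temperature in buffer containing IBMX, then cAMP quantified by Eu-cAMP tracer and ULight anti-cAMP detection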
T4 construct: host or cells: CHO-K1
T4 sequence (Q01726 whole entry): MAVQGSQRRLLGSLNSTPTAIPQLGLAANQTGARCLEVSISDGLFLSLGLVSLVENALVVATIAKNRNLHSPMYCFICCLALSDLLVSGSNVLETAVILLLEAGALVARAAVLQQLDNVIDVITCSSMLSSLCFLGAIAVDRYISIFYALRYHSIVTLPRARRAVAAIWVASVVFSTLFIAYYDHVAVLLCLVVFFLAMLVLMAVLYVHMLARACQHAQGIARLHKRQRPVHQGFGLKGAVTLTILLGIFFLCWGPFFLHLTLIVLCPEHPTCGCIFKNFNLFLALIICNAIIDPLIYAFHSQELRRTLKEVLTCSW
Experimental: The cyclic AMP (cAMP) functional assay was performed on a human recombinant MC1R stable cell line (CHO-K1, GenScript). The cells were cultured at 37° C. and 5% CO2 with culture medium (90% Ham's F-12K (Kaighn's)+10% FBS+400 μg/mL G418). […] Then, 100 nL of compounds were transferred to the assay plate by the Echo machine. Cells were washed with PBS and then detached by incubation with 0.05% (w/v) Trypsin EDTA at 37° C. for 2 to 5 mins. Cells were collected with stimulation buffer (1×HBSS with 5 mM HEPES+0.2 mM IBMX+0.1% BSA) and 10 ul of cells (the density of 2,500 cells/well) solution was transferred to assay plate, centrifuged at 600 rpm for 3 min and then incubated with compounds at room temperature for 60 min. After that, 5 μL 4×Eu-cAMP tracer solution and 5 μL 4×ULight™-anti-cAMP solution was added into the cells, centrifuged at 600 rpm for 3 min and incubated for 60 min. The cAMP signal was detected with Envision® Multimode Plate Reader (PerkinElmer).

[3] = In vivo topical administration tissue distribution study, minipig; settings: topical 5 mg/mL BID
Experimental: Animals were acclimated to the study environment for a minimum of 1 week. […] Examinations included, but were not limited to, the skin and external ears, eyes, and abdomen, neurological behavior, and general body condition.
Treatment was administered twice daily (BID) with approximately 6-8 hours between each BID dose, with tissue collection one hour after the last dose. Tissues and blood collected include plasma, aqueous humor, iris/ciliary body, vitreous humor, eye cup containing the retinal pigment epithelium, choroid, sclera, cornea, retina, optic nerve, and brain.
Blood (3 mL) was collected IV or ICAR for terminal collections and placed into K2EDTA tubes for plasma acquisition. […] Blood samples were stored on wet ice for up to 30 minutes prior to plasma processing.
Following euthanasia, eyes were enucleated and rinsed twice with fresh ice-cold PBS. Aqueous humor was removed via a 27 or 30 G syringe, weighed in polypropylene screw cap tubes, and snap frozen by immersing in liquid nitrogen. Eyes were dissected while frozen. All tissues were placed into individual vials, weighed, and snap frozen. The brain was collected and weighed. The hypothalamus, hippocampus and remaining brain was then dissected and weighed. 100-200 mg of each section was placed in pre-weighed polypropylene tubes, reweighed, and snap frozen. The remaining tissue was discarded. All tissues were stored frozen at −80° C. on dry ice.
The observed distribution pattern was consistent with that observed in the rat study. […] As also shown in FIG. 14, all three peptides were detected in the CNS of the animals, with no behavioral or metabolic changes noted in these animals despite the significant exposure. The foregoing results therefor confirm that the peptides disclosed herein can be delivered topically for retinal indications.

in vivo = settings: rabbit, topical or ocular, 3 mg/ml solution, 35 L per eye, Concentrations (ng/mL) in Rabbit Aqueous Humor
Excerpt: as §1, §2, §3, §4, §5, §6

IC50 (human recombinant MC5R; calcium flux functional assay) [nM] | IC50 (human recombinant MC3R) [nM] | IC50 (human recombinant MC1R) [nM] | SMILES | Topical Ocular Permeability (nM ± SEM) [2] [nM] | EC50 (human recombinant MC4R) [nM] | EC50 (human recombinant MC5R) [nM] | further results
140 | – | – | CCCC[C@H](NC(C)=O)C(=O)N[C@H]1CCCCn2cc(nn2)C[C@@H](C(N)=O)NC(=O)[C@H](Cc2c[nH]c3ccccc23)NC(=O)[C@H](CCCNC(=N)N)NC(=O)[C@@H](Cc2ccccc2)NC(=O)[C@H](Cc2cnc[nH]2)NC1=O [KR-009, Ac-Nle-[Lys(N3)-His-DPhe-Arg-Trp-Pra]-NH2] (Ac-[Nle][Lys(N3)]H[dF]RW[Pra]-NH2; triazole 2-7) | 1.43 ± 1.01 | 45.7 | 140 | solubility [1]: > 5000 µg/mL
– | > 50000 | – | N=C(N)NCCC[C@@H]1NC(=O)[C@H](Cc2ccccc2)NC(=O)[C@H](Cc2c[nH]cn2)NC(=O)[C@H](CCC(=O)O)NC(=O)CSC[C@@H](C(N)=O)NC(=O)[C@H](Cc2c[nH]c3ccccc23)NC1=O [KR-011, Cyclo(-Ac-Glu-His-Phe-Arg-Trp-Cys)-NH2] ({CH2CO}-EHFRWC-NH2; thioether N-6 (inferred)) | – | – | – | MC5R IC50 (human recombinant MC5R; calcium flux functional assay): Not fit
– | > 50000 | > 200 | CSCC[C@H](NC(=O)[C@H](CO)NC(=O)[C@H](Cc1ccc(O)cc1)NC(=O)[C@H](CO)NC(C)=O)C(=O)N[C@@H](CCC(=O)O)C(=O)N[C@@H](Cc1c[nH]cn1)C(=O)N(C)[C@@H](Cc1ccccc1)C(=O)N[C@@H](CCCNC(=N)N)C(=O)N[C@@H](Cc1c[nH]c2ccccc12)C(=O)NCC(=O)N[C@@H](CCCCN)C(=O)N1CCC[C@H]1C(=O)N[C@H](C(N)=O)C(C)C [KR-022, Ac-Ser-Tyr-Ser-Met-Glu-His-(NMe-Phe)-Arg-Trp-Gly-Lys-Pro-Val-NH2] | – | – | – | –
> 10000 | > 50000 | > 50 | CCCC[C@H](NC(C)=O)C(=O)N1CCC(=O)NCCN(CC(=O)N[C@@H](Cc2c[nH]c3ccccc23)C(N)=O)C(=O)[C@H](CCCNC(=N)N)NC(=O)[C@@H](Cc2ccccc2)NC(=O)[C@H](Cc2c[nH]cn2)NC(=O)C1 [KR-029, Ac-Nle-cyc(NGlu-His-DPhe-Arg-NDab)-Trp-NH2] | – | – | – | IC50 (human recombinant MC4R): > 1000 nM
– | > 50000 | > 50 | CCCC[C@H](NC(C)=O)C(=O)N[C@H]1CCCCn2cc(nn2)C[C@@H](C(N)=O)NC(=O)[C@H](Cc2c[nH]c3ccccc23)NC(=O)[C@H](CCCNC(=N)N)NC(=O)[C@@H](Cc2ccccc2)N(C)C(=O)[C@H](Cc2c[nH]cn2)NC1=O [KR-044, Ac-Nle-[Lys(N3)-His-(NMe-Dphe)-Arg-Trp-Pra]-NH2] (Ac-[Nle][Lys(N3)]H[dNMeF]RW[Pra]-NH2; triazole 2-7) | – | – | – | –
– | > 50000 | – | CCCC[C@H](NC(C)=O)C(=O)N[C@H]1CCCCn2cc(nn2)C[C@@H](C(N)=O)NC(=O)[C@H](Cc2c[nH]c3ccccc23)NC(=O)[C@H](CCCNC(=N)N)N(C)C(=O)[C@@H](Cc2ccccc2)NC(=O)[C@H](Cc2c[nH]cn2)NC1=O [KR-045, Ac-Nle-[Lys(N3)-His-DPhe-NMeArg-Trp-Pra]-NH2] (Ac-[Nle][Lys(N3)]H[dF][NMeR]W[Pra]-NH2; triazole 2-7) | – | – | – | –
– | > 50000 | – | CCCC[C@H](NC(C)=O)C(=O)N[C@H]1CCCCn2cc(nn2)C[C@@H](C(N)=O)NC(=O)[C@H](Cc2c[nH]c3ccccc23)NC(=O)[C@H](CCCNC(=N)N)NC(=O)[C@@H](Cc2ccc(C(F)(F)F)cc2)NC(=O)[C@H](Cc2c[nH]cn2)NC1=O [KR-048, Ac-Nle-[Lys(N3)-His-Dphe(4-CF3)-Arg-Trp-Pra]-NH2] (Ac-[Nle][Lys(N3)]H[dPhe(4-CF3)]RW[Pra]-NH2; triazole 2-7) | – | – | – | –
25.2 | – | 0.019 | CCCC[C@H](NC(C)=O)C(=O)N[C@H]1CCCCn2cc(nn2)C[C@@H](C(N)=O)NC(=O)[C@H](Cc2c[nH]c3ccccc23)NC(=O)[C@H](CCCNC(=N)N)NC(=O)[C@@H](Cc2ccc(F)cc2)NC(=O)[C@H](Cc2c[nH]cn2)NC1=O [KR-049, Ac-Nle-[Lys(N3)-His-Dphe(4-F)-Arg-Trp-Pra]-NH2] (Ac-[Nle][Lys(N3)]H[dPhe(4-F)]RW[Pra]-NH2; triazole 2-7) | 23.9 ± 10.8 | 16.1 | 25.2 | melanin binding ([3]; compared with K173 and K174): enhanced melanin binding; scleral and retinal exposure ([3]; compared with K173 and K174): decreased scleral and retinal exposure; corneal permeability ([3]; similar to rabbit study): enhanced corneal permeability; solubility [1]: 9950 µg/mL (≈ 9.33 mM); EC50 (human recombinant MC1R): 0.019 nM
195 | > 50000 | 2.68 | CCCC[C@H](NC(C)=O)C(=O)N[C@H]1CCCCn2cc(nn2)C[C@@H](C(N)=O)NC(=O)[C@H](Cc2c[nH]c3ccccc23)NC(=O)[C@H](CCCNC(=N)N)N(C)C(=O)[C@@H](Cc2ccccc2)NC(=O)[C@H](Cc2c[nH]cn2)N(C)C1=O [KR-052, Ac-Nle-[Lys(N3)-NMeHis-DPhe-NMeArg-Trp-Pra]-NH2] (Ac-[Nle][Lys(N3)][NMeH][dF][NMeR]W[Pra]-NH2; triazole 2-7) | – | – | – | IC50 (human recombinant MC4R): 122 nM
195 | > 50000 | 2.68 | CCCC[C@H](NC(C)=O)C(=O)N[C@H]1CCCCn2cc(nn2)C[C@@H](C(=O)N[C@@H](CCCCN)C(N)=O)NC(=O)[C@H](Cc2c[nH]c3ccccc23)NC(=O)[C@H](CCCNC(=N)N)NC(=O)[C@@H](Cc2ccc(OC)cc2)NC(=O)[C@H](Cc2c[nH]cn2)NC1=O [KR-058, Ac-Nle-[Lys(N3)-His-DTyr(Me)-Arg-Trp-Pra]-Lys-NH2] (Ac-[Nle][Lys(N3)]H[dY](Me)RW[Pra]K-NH2; triazole 2-7) | – | – | – | IC50 (human recombinant MC4R): 122 nM

SMILES | IC50 (human recombinant MC5R; calcium flux functional assay) [nM] | IC50 (human recombinant MC3R) [nM] | IC50 (human recombinant MC1R) [nM] | Topical Ocular Permeability (nM ± SEM) [2] [nM] | EC50 (human recombinant MC4R) [nM] | EC50 (human recombinant MC5R) [nM] | further results
CCCC[C@H](NC(=O)c1cc(O)cc(O)c1)C(=O)N[C@H]1CCCCn2cc(nn2)C[C@@H](C(=O)N[C@@H](CCCC(N)=O)C(N)=O)NC(=O)[C@H](Cc2c[nH]c3ccccc23)NC(=O)[C@H](CCCNC(=N)N)NC(=O)[C@@H](Cc2ccc(F)cc2)NC(=O)[C@H](Cc2c[nH]cn2)NC1=O [KR-071, HyBA-Nle-[Lys(N3)-His-Dphe(4-F)-Arg-Trp-Pra]-Hgln-NH2] ({Benzoyl(3,5-(OH)2)}-[Nle][Lys(N3)]H[dPhe(4-F)]RW[Pra][Aad](NH2)-NH2; triazole 2-7) | 73.9 | – | 0.0023 | 2.5 ± 0.2 | 103 | 73.9 | solubility ([1]; Table 8, read-out: Solubility): 6100 µg/mL (≈ 4.68 mM); EC50 (human recombinant MC1R): 0.0023 nM; level at 0.5 h (in vivo): 2.84 ng/mL
CCCC[C@H](NC(=O)c1cc(O)cc(O)c1)C(=O)N[C@H]1CCCCn2cc(nn2)C[C@@H](C(N)=O)NC(=O)[C@H](Cc2c[nH]c3ccccc23)NC(=O)[C@H](CCCNC(=N)N)NC(=O)[C@@H](Cc2ccccc2)NC(=O)[C@H](Cc2c[nH]cn2)NC1=O [KR-073, HyBA-Nle-[Lys(N3)-His-DPhe-Arg-Trp-Pra]-NH2] ({Benzoyl(3,5-(OH)2)}-[Nle][Lys(N3)]H[dF]RW[Pra]-NH2; triazole 2-7) | 134 | – | 0.0041 | 12.3 ± 3.8 | 13.9 | 134 | solubility ([1]; Table 8, read-out: Solubility): 7690 µg/mL (≈ 6.73 mM); EC50 (human recombinant MC1R): 0.0041 nM
